Results: patent US11446269B2, “Methods of reducing or preventing oxidation of small dense LDL or membrane polyunsaturated fatty acids” (Amarin Pharmaceuticals Ireland Limited, priority 2014, dated 2022)

Test system: HUVECs
Experiment: NO and ONOO^− release from HUVECs treated concomitantly with agent-treated oxLDL (Example 11, objective 2)
Format: cell-based, human
Details: oxLDL 11 mg/dL treated 30 min with agents 10 μM, 60 min exposure, calcium ionophore; in nM
Method: Human umbilical vein endothelial cells (HUVECs) were obtained from healthy, female donors and isolated into primary, proliferating cell cultures (Clonetics, San Diego, Calif.). The cells were incubated in 95% air/5% CO2 at 37° C. and passaged by an enzymatic (trypsin) procedure. The confluent cells (4 to 5×10^5 cells/35 mm dish) were plated with minimum essential medium containing 3 mM L-arginine and 0.1 mM BH4 [(6R)-5,6,7,8-tetrahydrobiopterin]. Before experimental use, the cells (from second or third passage) were rinsed twice with Tyrode-HEPES buffer with 1.8 mM CaCl2.
Concurrent measurements of NO and ONOO^− were performed with tandem electrochemical nanosensors combined into one working unit with a total diameter of 200-400 nm. Their design is based on previously developed and chemically modified carbon-fiber technology. […]
The amperometric method (with a response time of 0.1 ms) provides a quantitative signal (current) that is directly proportional to changes (from basal levels) in NO or ONOO^− concentration. […] Basal NO or ONOO^− levels were measured by differential pulse voltammetry in separate experiments.
All measurements of NO and ONOO^− were performed on intact endothelial cells. […] Cells will then be treated with calcium ionophore (to maximally stimulate the release of nitrous molecules) and monitored continuously for changes in amperometric current. […]

## CC/C=C\C/C=C\C/C=C\C/C=C\C/C=C\C/C=C\CCC(=O)O [DHA, docosahexaenoic acid]
  ONOO^− release: 240 ± 27^
